Results reported in US20260248972A1, “DUAL RECEPTOR TARGETING RADIOLIGANDS AND USES THEREOF RELATED APPLICATIONS” (priority 2022, published 2026).
Like-named read-outs stand apart in the source and are kept apart here. *1 amine or outer side, *2 acyl side, *3 side chain or, on linkers, in order; H or OH if unused. Where a SMILES comes first, the peptide text is derived from it. Bridges are numbered along the chain shown (N, C = ends). Roman numbers before positions name the chains, in order. Side-chain parts run from the residue outwards. [ ]: non-standard residue; d: D form. The star is where a group is joined. ξ: configuration not given here. X1 = CC(C)(C)C(=O)CN1C(=O)[C@H](N*)CN(C2CCCCC2)c2ccccc21; DOTA = O=C(O)CN1CCN(CC(=O)O)CCN(CC(=O)*)CCN(CC(=O)O)CC1; γGlu = O=C(O)[C@H](CCC(=O)[*:2])N[*:1]; X2 = CC(=O)[C@H](Cc1ccc(O)cc1)N*; X3 = CC(=O)[C@@H](N*)[C@@H](C)O; 3Abz = Nc1cccc(C(=O)O)c1; ξF = NC(Cc1ccccc1)C(=O)O; ξE = NC(CCC(=O)O)C(=O)O; AEEA = NCCOCCOCC(=O)O; CO = O=C([*:1])[*:2]

Tests used:
CCK2R = molecular target: T1, CCK2R (Homo sapiens, UniProt P32239); test: Competitive binding (FACS) on CCK2R-transfected HEK 293T cells with Cy5-labeled F11N derivative; conditions: Cy5-labeled F11N derivative competitive ligand (Table 4)
T1 construct: expressed in transfected cells; host or cells: HEK 293T cells
T1 sequence (P32239 1-447): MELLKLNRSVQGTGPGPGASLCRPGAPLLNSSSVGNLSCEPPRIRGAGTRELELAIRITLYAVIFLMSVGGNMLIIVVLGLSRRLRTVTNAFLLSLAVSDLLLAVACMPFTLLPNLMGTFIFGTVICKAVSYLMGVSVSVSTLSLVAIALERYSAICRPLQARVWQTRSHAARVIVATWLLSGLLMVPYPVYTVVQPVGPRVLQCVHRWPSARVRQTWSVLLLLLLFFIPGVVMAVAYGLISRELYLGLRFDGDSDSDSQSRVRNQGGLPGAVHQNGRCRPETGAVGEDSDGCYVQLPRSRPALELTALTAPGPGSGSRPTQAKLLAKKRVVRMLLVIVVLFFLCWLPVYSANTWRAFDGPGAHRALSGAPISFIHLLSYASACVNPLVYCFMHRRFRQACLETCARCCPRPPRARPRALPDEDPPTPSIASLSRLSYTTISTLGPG

SSTR2 = molecular target: T2, SSTR2 (Homo sapiens, UniProt P30874); test: Competitive binding (FACS) on SSTR2-transfected HEK 293T cells with Cy5-labled DOTA-TATE; conditions: HEK 293T transfected, Cy5-labled DOTA-TATE competitive ligand (Table 4)
T2 construct: expressed in transfected cells; host or cells: HEK 293T cells
Protocol: Binding Affinity Tested by Using Cy5-Labled Competitive Ligands.
HEK 293T cells were transfected with SSTR2 or CCK2R-expressing plasmid by Lipofectamine 2000 reagent. 24 hours after transfection, cells were harvested and suspended with assay buffer (1% OVA in DMEM). […] The testing compound was further supplemented into the wells at different concentrations. After incubation for 1 hour at dark, cells were washed and suspended in FACS buffer (1% OVA in DPBS). The fluorescent signal was detected by FACS machine and the binding affinity of the testing compound was evaluated by calculation of IC50 for competitive binding of reference compound.

[1] = HEK 293T transfected, read-out: CCK2R IC50

T2 sequence (P30874 whole entry, species assumed): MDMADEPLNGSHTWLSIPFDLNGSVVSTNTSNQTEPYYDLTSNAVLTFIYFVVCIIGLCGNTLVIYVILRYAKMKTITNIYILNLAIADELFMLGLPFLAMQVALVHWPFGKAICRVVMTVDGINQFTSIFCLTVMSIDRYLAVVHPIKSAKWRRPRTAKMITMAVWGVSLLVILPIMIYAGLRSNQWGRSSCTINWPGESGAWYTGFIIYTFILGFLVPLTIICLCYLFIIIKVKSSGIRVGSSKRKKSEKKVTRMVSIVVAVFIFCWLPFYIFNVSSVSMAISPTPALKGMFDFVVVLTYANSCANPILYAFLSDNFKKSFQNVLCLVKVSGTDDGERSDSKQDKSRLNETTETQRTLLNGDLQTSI

| Structure (SMILES) | IC50 (CCK2R; [1]) [µM] | IC50 (SSTR2) [µM] | IC50 (CCK2R; CCK2R IC50, HEK 293T transfected) [µM] |
| --- | --- | --- | --- |
| CC(=O)[C@H](Cc1ccc(O)cc1)NC(=O)[C@H](CSSC[C@H](NC(=O)[C@@H](NC(=O)[C@H](CCCCN)NC(=O)[C@H](N)Cc1c[nH]c2ccccc12)[C@@H](C)O)C(=O)N[C@H](C(C)=O)[C@@H](C)O)NC(=O)C(Cc1ccccc1)NC(=O)COCCOCCNC(=O)COCCOCCNC(=O)CC[C@H](NC(=O)C(CCC(=O)O)NC(=O)[C@H](CCCCNC(=O)c1cccc(NC(=O)N[C@@H]2CN(C3CCCCC3)c3ccccc3N(CC(=O)C(C)(C)C)C2=O)c1)NC(=O)CN1CCN(CC(=O)O)CCN(CC(=O)O)CCN(CC(=O)O)CC1)C(=O)O (stereo partly drawn) [Compound I-75, DOTA-K(Z360)-Glu-gGlu-OEG-OEG-f[CYwKTC]T-OH] (I: {DOTA}-K([3Abz-CO-X1])[ξE][γGlu][AEEA][AEEA][ξF]C-X2 / II: H-[dW]KTC-X3; disulfide I:7-II:4) | 0.126 | 0.00936 |  |
| C[C@@H](O)[C@H](NC(=O)[C@@H]1CSSC[C@H](NC(=O)[C@@H](Cc2ccccc2)C(=O)C(=O)COCCOCCNC(=O)[C@H](CCCCCC(=O)COCCOCCNC(=O)COCCOCCCC(=O)[C@H](CCC(=O)O)NC(=O)c2cccc(NC(=O)NN3CCc4ccccc4N(CC(=O)C(C)(C)C)C3=O)c2)NC(=O)CN2CCN(CC(=O)O)CCN(CC(=O)O)CCN(CC(=O)O)CC2)C(=O)N[C@@H](Cc2ccc(O)cc2)C(=O)N[C@H](Cc2c[nH]c3ccccc23)C(=O)N[C@@H](CCCCN)C(=O)N[C@@H]([C@@H](C)O)C(=O)C1)C(=O)O [Compound I-76, DOTA-K(-OEG-OEG-Glu-Z360)-OEG-f[CYwKTC]T-OH] | 0.0112 | 0.00544 |  |
| C[C@@H](O)[C@H](NC(=O)[C@@H]1CSSC[C@H](NC(=O)[C@@H](Cc2ccccc2)C(=O)C(=O)COCCOCCNC(=O)[C@H](CCCCCC(=O)COCCOCCNC(=O)CC[C@H](NC(=O)[C@H](CO)NC(=O)c2cccc(NC(=O)NN3CC(C4CCCCC4)c4ccccc4N(CC(=O)C(C)(C)C)C3=O)c2)C(=O)O)NC(=O)CN2CCN(CC(=O)O)CCN(CC(=O)O)CCN(CC(=O)O)CC2)C(=O)N[C@@H](Cc2ccc(O)cc2)C(=O)N[C@H](Cc2c[nH]c3ccccc23)C(=O)N[C@@H](CCCCN)C(=O)N[C@@H]([C@@H](C)O)C(=O)C1)C(=O)O (stereo partly drawn) [Compound I-77, DOTA- K(-OEG- gGlu- Ser- Z360)- OEG- f]CYwKTC]T- OH] | 0.0194 | 0.00477 |  |
| C[C@@H](O)[C@H](NC(=O)[C@@H]1CSSC[C@H](NC(=O)[C@@H](Cc2ccccc2)C(=O)C(=O)COCCOCCNC(=O)[C@H](CCCCCC(=O)COCCOCCNC(=O)CC[C@H](NC(=O)[C@H](CN)NC(=O)c2cccc(NC(=O)NN3CC(C4CCCCC4)c4ccccc4N(CC(=O)C(C)(C)C)C3=O)c2)C(=O)O)NC(=O)CN2CCN(CC(=O)O)CCN(CC(=O)O)CCN(CC(=O)O)CC2)C(=O)N[C@@H](Cc2ccc(O)cc2)C(=O)N[C@H](Cc2c[nH]c3ccccc23)C(=O)N[C@@H](CCCCN)C(=O)N[C@@H]([C@@H](C)O)C(=O)C1)C(=O)O (stereo partly drawn) [Compound I-78, DOTA- K(-OEG- gGlu- Dap- Z360)- OEG- f[CYwKTC]T- OH] | 0.0305 | 0.00613 |  |
| C[C@@H](O)[C@H](NC(=O)[C@@H]1CSSC[C@H](NC(=O)[C@@H](Cc2ccccc2)C(=O)C(=O)COCCOCCNC(=O)[C@H](CCCCCC(=O)COCCOCCNC(=O)[C@H](Cc2c[nH]cn2)NC(=O)[C@H](CCC(=O)O)NC(=O)c2cccc(NC(=O)N[C@@H]3CN(C4CCCCC4)c4ccccc4N(CC(=O)C(C)(C)C)C3=O)c2)NC(=O)CN2CCN(CC(=O)O)CCN(CC(=O)O)CCN(CC(=O)O)CC2)C(=O)N[C@@H](Cc2ccc(O)cc2)C(=O)N[C@H](Cc2c[nH]c3ccccc23)C(=O)N[C@@H](CCCCN)C(=O)N[C@@H]([C@@H](C)O)C(=O)C1)C(=O)O [Compound I-79, DOTA- K(-OEG- His- Glu- Z360)- OEG- f[CYwKTC]T- OH] |  | 0.00675 | 0.0165 |
| C[C@@H](O)[C@H](NC(=O)[C@@H]1CSSC[C@H](NC(=O)[C@@H](Cc2ccccc2)C(=O)C(=O)COCCOCCNC(=O)[C@H](CCCCCC(=O)COCCOCCNC(=O)COCCOCCNC(=O)C(Cc2ccc(C(=O)O)cc2)NC(=O)c2cccc(NC(=O)NN3CC(C4CCCCC4)c4ccccc4N(CC(=O)C(C)(C)C)C3=O)c2)NC(=O)CN2CCN(CC(=O)O)CCN(CC(=O)O)CCN(CC(=O)O)CC2)C(=O)N[C@@H](Cc2ccc(O)cc2)C(=O)N[C@H](Cc2c[nH]c3ccccc23)C(=O)N[C@@H](CCCCN)C(=O)N[C@@H]([C@@H](C)O)C(=O)C1)C(=O)O (stereo partly drawn) [Compound I-80, DOTA-K(-OEG-OEG-Cbp-Z360)-OEG-f[CYwKTC]T-OH] | 0.0242 | 0.00503 |  |
